In patent publication US7790898B2, “Substituted 3-phenylpiperidine compounds, their preparation and use” (Gruenenthal GmbH, priority 2004, dated 2010):
One block for each compound: values may come before it.

System: L-calcium channel benzothiazepine binding site
Experiment: Binding at the L-calcium channel benzothiazepine binding site (diltiazem binding)
Conditions: rat cerebral cortex membranes; for Diltiazem binding [10 μM] % inhibition: 10 μM test compound, [3H]-cis-(+)-diltiazem 5 nM, 20 minutes at 25° C.
Protocol: Biological Data: Investigations on Binding at the L-Calcium Channel Benzothiazepine Binding Site (Diltiazem Binding)
The biological membrane material was isolated from rat cerebral cortex. [^3H]-cis-(+)-diltiazem (5 nM in the batch) was used as ligand. Incubation was for 20 minutes at 25° C. The radioactivity measured in the presence of (±)-diltiazem (10^−6 M in the batch) is defined as the non-specific binding. The non-bound fraction of the radioactive ligand was separated after completion of the incubation, using a filtration process through Whatman glass fiber GF/B membranes. After being washed, the membranes were then measured in a β-counter. The method was developed based on the publication by Schoemaker and Langer (H. Schoemaker and S. Z. Langer (1985) Eur. J. Pharmacol. 111, 273-277).

Compound: COc1cccc(C2(O)CCCN(Cc3ccc(C)c([N+](=O)[O-])c3)C2)c1.Cl (centres unmarked) [Example 50, 3-(3-methoxyphenyl)-1-(4-methyl-3-nitro-benzyl)-piperidine-3-ol hydrochloride]
Diltiazem binding [10 μM] % inhibition: 73.8%

Compound: COc1cccc(C2(O)CCCN(Cc3cccc(C(F)(F)F)c3)C2)c1.Cl (centres unmarked) [Example 40, 3-(3-methoxyphenyl)-1-(3-trifluoromethylbenzyl)-piperidine-3-ol hydrochloride]
Diltiazem binding [10 μM] % inhibition: 85.9%

Compound: COc1cccc(C2(O)CCCN(CCc3ccccc3)C2)c1.Cl (centres unmarked) [Example 47, 3-(3-methoxyphenyl)-1-phenethyl-piperidine-3-ol hydrochloride]
Diltiazem binding [10 μM] % inhibition: 79.4%

Compound: COc1cccc(C2(O)CCCN(Cc3ccc(Cl)c([N+](=O)[O-])c3)C2)c1.Cl (centres unmarked) [Example 51, 1-(4-chloro-3-nitro-benzyl)-3-(3-methoxyphenyl)-piperidine-3-ol hydrochloride]
Diltiazem binding [10 μM] % inhibition: 81.4%

Compound: [^3H]-cis-(+)-diltiazem [reference compound]
Kd (radioligand, N=3, mean ±SEM, read-out: KD value for this high affinity binding site): 4.1 ± 0.75 nM

Compound: COc1cccc(C2(O)CCCN(Cc3cccc(F)c3)C2)c1.Cl (centres unmarked) [Example 32, 1-(3-fluorobenzyl)-3-(3-methoxyphenyl)-piperidine-3-ol hydrochloride]
Diltiazem binding [10 μM] % inhibition: 83.7%

Compound: COc1cccc(C2(O)CCCN(Cc3cc(F)cc(F)c3)C2)c1.Cl (centres unmarked) [Example 36, 1-(3,5-difluorobenzyl)-3-(3-methoxyphenyl)-piperidine-3-ol hydrochloride]
Diltiazem binding [10 μM] % inhibition: 57.4%

Diltiazem binding [10 μM] % inhibition: 55.8%
Compound: COc1cccc(C2(O)CCCN(C(=O)c3ccc(C)cc3)C2)c1 (centres unmarked) [Example 9, [3-hydroxy-3-(3-methoxyphenyl)-piperidine-1-yl]-p-tolyl-methanone]

Compound: COc1cccc(C2(O)CCCN(CC(c3ccccc3)c3ccccc3)C2)c1.Cl (centres unmarked) [Example 48, 1-(2,2-diphenyl-ethyl)-3-(3-methoxyphenyl)-piperidine-3-ol hydrochloride]
Diltiazem binding [10 μM] % inhibition: 88.2%

Compound: COc1cccc(C2(O)CCCN(Cc3cc(C(F)(F)F)cc(C(F)(F)F)c3)C2)c1.Cl (centres unmarked) [Example 52, 1-(3,5-bis-trifluoromethyl-benzyl)-3-(3-methoxyphenyl)-piperidine-3-ol hydrochloride]
Diltiazem binding [10 μM] % inhibition: 75.9%

Compound: COc1cccc(C2(O)CCCN(Cc3ccc(C)cc3)C2)c1.Cl (centres unmarked) [Example 39, 3-(3-methoxyphenyl)-1-(4-methylbenzyl)-piperidine-3-ol hydrochloride]
Diltiazem binding [10 μM] % inhibition: 76%

Compound: COc1cccc(C2(O)CCCN(Cc3cccc(Br)c3)C2)c1.Cl (centres unmarked) [Example 49, 1-(3-bromobenzyl)-3-(3-methoxyphenyl)-piperidine-3-ol hydrochloride]
Diltiazem binding [10 μM] % inhibition: 90.4%

Compound: COc1cccc(C2(O)CCCN(Cc3cccs3)C2)c1.Cl (centres unmarked) [Example 46, 3-(3-methoxyphenyl)-1-thiophen-2-ylmethyl-piperidine-3-ol hydrochloride]
Diltiazem binding [10 μM] % inhibition: 81.8%

Compound: COc1cccc(C2(O)CCCN(CCOc3ccccc3)C2)c1.Cl (centres unmarked) [Example 41, 3-(3-methoxyphenyl)-1-(2-phenoxy-ethyl)-piperidine-3-ol hydrochloride]
Diltiazem binding [10 μM] % inhibition: 92.7%

Compound: COc1cccc(C2(O)CCCN(Cc3ccc(F)cc3)C2)c1.Cl (centres unmarked) [Example 33, 1-(4-fluorobenzyl)-3-(3-methoxyphenyl)-piperidine-3-ol hydrochloride]
Diltiazem binding [10 μM] % inhibition: 95%

Diltiazem binding [10 μM] % inhibition: 55%
Compound: COc1ccc(CN2CCCC(O)(c3cccc(C)c3)C2)cc1.Cl (centres unmarked) [Example 43, 1-(4-methoxybenzyl)-3-(3-methylphenyl)-piperidine-3-ol hydrochloride]

Compound: COc1cccc(C2(O)CCCN(Cc3ccc(Br)cc3)C2)c1.Cl (centres unmarked) [Example 34, 1-(4-bromobenzyl)-3-(3-methoxyphenyl)-piperidine-3-ol hydrochloride]
Diltiazem binding [10 μM] % inhibition: 78.7%

Compound: COc1cccc(C2(O)CCCN(Cc3ccc(C#N)cc3)C2)c1.Cl (centres unmarked) [Example 44, 4-[3-hydroxy-3-(3-methoxyphenyl)-piperidine-1-ylmethyl]-benzonitrile hydrochloride]
Diltiazem binding [10 μM] % inhibition: 52.3%

Compound: COc1cccc(C2(O)CCCN(Cc3ccc([N+](=O)[O-])cc3)C2)c1.Cl (centres unmarked) [Example 42, 3-(3-methoxyphenyl)-1-(4-nitrobenzyl)-piperidine-3-ol hydrochloride]
Diltiazem binding [10 μM] % inhibition: 50%

Compound: COc1cccc(C2(O)CCCN(Cc3ccc(Cl)c(Cl)c3)C2)c1.Cl (centres unmarked) [Example 37, 1-(3,4-dichlorbenzyl)-3-(3-methoxyphenyl)-piperidine-3-ol hydrochloride]
Diltiazem binding [10 μM] % inhibition: 80.7%
